The source of these data is patent US12286440B2, “Penam derivative or salt thereof, pharmaceutical composition, and applications thereof” (priority 2018, dated 2025).

The test system of the assay is multidrug-resistant Pseudomonas aeruginosa strain (S-2838 strain). The assay is described as follows: Test for protection against systemic infection in mouse with multidrug-resistant Pseudomonas aeruginosa. It counts as in vivo, ICR male SPF mice. The following applies: sc, 72 h, read-out: survival rate. The protocol:
As mice, ICR male SPF mice (4 weeks old: 10 mice per group) were used. Clinically isolated multidrug-resistant Pseudomonas aeruginosa strain (S-2838 strain) cultured overnight on a Mueller-Hinton agar plate at 37° C. was cultured on a cation-adjusted Mueller Hinton medium for 5 hours, and then diluted 20-fold with a 10% mucin/phosphate buffer, thereby preparing an inoculum. An infection was induced by intraperitoneally inoculating the mice with the inoculum at 0.5 mL (about 10^6 CFU/mouse). Each test compound was dissolved in physiological saline, and 1 hour after the infection, the compound was subcutaneously administered once to the mice at 40 mg/kg. The control group was administered with the same amount of physiological saline used as a vehicle. The number of surviving mice was recorded 3 days after the infection.
A test for protection against systemic infection in a mouse with multidrug-resistant Pseudomonas aeruginosa was performed in the same manner as in Test Example 2.

Each structure is given as a SMILES string. Where only a bound is given, the exact number is not on record here.

As for `CC(C)(O/N=C(\C(=O)N[C@@H]1C(=O)N2C[C@@](C(=O)O)(N3CCN(NC(=O)c4cc(Cl)c(O)c(O)c4Cl)C3=O)S[C@H]12)c1csc(N)n1)C(=O)O` [Example 83, (3R,5R,6R)-6-((Z)-2-(2-aminothiazol-4-yl)-2-(((2-carboxypropan-2-yl)oxy)imino)acetamido)-3-(3-(2,5-dichloro-3,4-dihydroxybenzamido)-2-oxoimidazolidin-1-yl)-7-oxo-4-thia-1-azabicyclo[3.2.0]heptane-3-carboxylate], the responders at 40 mg/kg is ≥ 90%.
As for `Nc1nc(/C(=N/OC2(C(=O)O)CC2)C(=O)N[C@@H]2C(=O)N3C[C@@](C(=O)O)(N4CCN(NC(=O)C(=O)c5ccc(O)c(O)c5Cl)C4=O)S[C@H]23)cs1` [Example 21, (3R,5R,6R)-6-((Z)-2-(2-aminothiazol-4-yl)-2-((1-carboxycyclopropoxy)imino)acetamido)-3-(3-(2-(2-chloro-3,4-dihydroxyphenyl)-2-oxoacetamido)-2-oxoimidazolidin-1-yl)-7-oxo-4-thia-1-azabicyclo[3.2.0]heptane-3-carboxylate], the responders at 40 mg/kg was ≥ 90%.
Take `Nc1nc(/C(=N/OC2(C(=O)O)CC2)C(=O)N[C@@H]2C(=O)N3C[C@@](C(=O)O)(N4CCN(NC(=O)CCNC(=O)C(=O)c5ccc(O)c(O)c5Cl)C4=O)S[C@H]23)cs1` [Example 31, (3R,5R,6R)-6-((Z)-2-(2-aminothiazol-4-yl)-2-((1-carboxycyclopropoxy)imino)acetamido)-3-(3-(3-(2-(2-chloro-3,4-dihydroxyphenyl)-2-oxoacetamido)propanamido)-2-oxoimidazolidin-1-yl)-7-oxo-4-thia-1-azabicyclo[3.2.0]heptane-3-carboxylate]: the responders at 40 mg/kg was ≥ 90%.
As to `CC(C)(O/N=C(\C(=O)N[C@@H]1C(=O)N2C[C@@](C(=O)O)(N3CCN(NC(=O)C(=O)c4ccc(O)c(O)c4Cl)C(=O)C3=O)S[C@H]12)c1csc(N)n1)C(=O)O` [Example 126, (3R,5R,6R)-6-((Z)-2-(2-aminothiazol-4-yl)-2-(((2-carboxypropan-2-yl)oxy)imino)acetamido)-3-(4-(2-(2-chloro-3,4-dihydroxyphenyl)-2-oxoacetamido)-2,3-dioxopiperazin-1-yl)-7-oxo-4-thia-1-azabicyclo[3.2.0]heptane-3-carboxylate], the responders at 40 mg/kg was ≥ 90%.
As for `CC[C@H](O/N=C(\C(=O)N[C@@H]1C(=O)N2C[C@@](C(=O)O)(N3CCN(NC(=O)C(=O)c4ccc(O)c(O)c4Cl)C3=O)S[C@H]12)c1csc(N)n1)C(=O)O` [Example 105, (3R,5R,6R)-6-((Z)-2-(2-aminothiazol-4-yl)-2-(((S)-1-carboxypropoxy)imino)acetamido)-3-(3-(2-(2-chloro-3,4-dihydroxyphenyl)-2-oxoacetamido)-2-oxoimidazolidin-1-yl)-7-oxo-4-thia-1-azabicyclo[3.2.0]heptane-3-carboxylate], the responders at 40 mg/kg was ≥ 90%.
Consider `CC(C)[C@H](O/N=C(\C(=O)N[C@@H]1C(=O)N2C[C@@](C(=O)O)(N3CCN(NC(=O)C(=O)c4ccc(O)c(O)c4Cl)C3=O)S[C@H]12)c1csc(N)n1)C(=O)O` [Example 114, (3R,5R,6R)-6-((Z)-2-(2-aminothiazol-4-yl)-2-(((S)-1-carboxy-2-methylpropoxy)imino)acetamido)-3-(3-(2-(2-chloro-3,4-dihydroxyphenyl)-2-oxoacetamido)-2-oxoimidazolidin-1-yl)-7-oxo-4-thia-1-azabicyclo[3.2.0]heptane-3-carboxylate], for which the responders at 40 mg/kg was ≥ 90%.
For the compound `COC[C@@H](NC(=O)C(=O)c1ccc(O)c(O)c1Cl)C(=O)NN1CCN([C@]2(C(=O)O)CN3C(=O)[C@@H](NC(=O)/C(=N\OC(C)(C)C(=O)O)c4csc(N)n4)[C@H]3S2)C1=O` [Example 139, (3R,5R,6R)-6-((Z)-2-(2-aminothiazol-4-yl)-2-(((2-carboxypropan-2-yl)oxy)imino)acetamido)-3-(3-((R)-2-(2-(2-chloro-3,4-dihydroxyphenyl)-2-oxoacetamido)-3-methoxypropanamido)-2-oxoimidazolidin-1-yl)-7-oxo-4-thia-1-azabicyclo[3.2.0]heptane-3-carboxylate], the responders at 40 mg/kg was ≥ 90%.
Turning to `CC(C)(O/N=C(\C(=O)N[C@@H]1C(=O)N2C[C@@](C(=O)O)(N3CCN(NC(=O)C(=O)c4ccc(O)c(O)c4Cl)C3=O)S[C@H]12)c1nsc(N)n1)C(=O)O` [Example 23, (3R,5R,6R)-6-((Z)-2-(5-amino-1,2,4-thiadiazol-3-yl)-2-(((2-carboxypropan-2-yl)oxy)imino)acetamido)-3-(3-(2-(2-chloro-3,4-dihydroxyphenyl)-2-oxoacetamido)-2-oxoimidazolidin-1-yl)-7-oxo-4-thia-1-azabicyclo[3.2.0]heptane-3-carboxylate], the responders at 40 mg/kg was ≥ 90%.
On to `CC(C)(O/N=C(\C(=O)N[C@@H]1C(=O)N2C[C@@](C(=O)O)(N3CCN(NC(=O)C(=O)c4ccc(O)c(O)c4Cl)C3=O)S[C@H]12)c1nc(N)sc1Cl)C(=O)O` [Example 22, (3R,5R,6R)-6-((Z)-2-(2-amino-5-chlorothiazol-4-yl)-2-(((2-carboxypropan-2-yl)oxy)imino)acetamido)-3-(3-(2(2-chloro-3,4-dihydroxyphenyl)-2-oxoacetamido)-2-oxoimidazolidin-1-yl)-7-oxo-4-thia-1-azabicyclo[3.2.0]heptane-3-carboxylate], for which the responders at 40 mg/kg was ≥ 90%.
For `CC(C)(O/N=C(\C(=O)N[C@@H]1C(=O)N2C[C@@](C(=O)O)(N3CCN(NC(=O)/C(=N\O)c4ccc(O)c(O)c4Cl)C3=O)S[C@H]12)c1csc(N)n1)C(=O)O` [Example 117, (3R,5R,6R)-6-((Z)-2-(2-aminothiazol-4-yl)-2-(((2-carboxypropan-2-yl)oxy)imino)acetamido)-3-(3-((Z)-2-(2-chloro-3,4-dihydroxyphenyl)-2-(hydroxyimino)acetamido)-2-oxoimidazolidin-1-yl)-7-oxo-4-thia-1-azabicyclo[3.2.0]heptane-3-carboxylate], the responders at 40 mg/kg is ≥ 90%.
For `CC(C)(O/N=C(\C(=O)N[C@@H]1C(=O)N2C[C@@](C(=O)O)(N3CCN(NC(=O)C(=O)c4ccc(O)c(O)c4Cl)C3=O)S[C@H]12)c1csc(N)n1)C(=O)O` [Example 20, (3R,5R,6R)-6-((Z)-2-(2-aminothiazol-4-yl)-2-(((2-carboxypropan-2-yl)oxy)imino)acetamido)-3-(3-(2-(2-chloro-3,4-dihydroxyphenyl)-2-oxoacetamido)-2-oxoimidazolidin-1-yl)-7-oxo-4-thia-1-azabicyclo[3.2.0]heptane-3-carboxylate], the responders at 40 mg/kg was ≥ 90%.
On to `CC(C)(O/N=C(\C(=O)N[C@@H]1C(=O)N2C[C@@](C(=O)O)(N3CCN(NC(=O)CCNC(=O)/C(=N\O)c4ccc(O)c(O)c4Cl)C3=O)S[C@H]12)c1csc(N)n1)C(=O)O` [Example 122, (3R,5R,6R)-6-((Z)-2-(2-aminothiazol-4-yl)-2-(((2-carboxypropan-2-yl)oxy)imino)acetamido)-3-(3-(3-((Z)-2-(2-chloro-3,4-dihydroxyphenyl)-2-(hydroxyimino)acetamido)propanamido)-2-oxoimidazolidin-1-yl)-7-oxo-4-thia-1-azabicyclo[3.2.0]heptane-3-carboxylate], for which the responders at 40 mg/kg is ≥ 90%.
